According to ChEMBL document CHEMBL1201862, “PubChem BioAssay data set” (2004):
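Assay format: 96-well plates, 48-hour exposure. Abbreviation: GI50, concentration required for 50% inhibition of growth.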 Activity calls are given as the source filed them. No stated cut-off is given here; in the data, active = GI50 up to about 1.1 µM and inactive = higher.

Tests used:
Test in all cases: DTP human tumour cell line panel, 48 h
786-0 = system: 786-0
A549 = system: A549
ACHN = system: ACHN
BT-549 = system: BT-549
CCRF-CEM = system: CCRF-CEM
COLO 205 = system: COLO 205
DU-145 = system: DU-145
HCT-116 = system: HCT-116
HCT-15 = system: HCT-15
HL-60 = system: HL-60
HOP-62 = system: HOP-62
HOP-92 = system: HOP-92
HT-29 = system: HT-29
Hs-578T = system: Hs-578T
IGROV-1 = system: IGROV-1
K562 = system: K562
KM12 = system: KM12
LOX IMVI = system: LOX IMVI
M14 = system: M14
MCF7 = system: MCF7
MDA-MB-231 = system: MDA-MB-231
MDA-N = system: MDA-N
MOLT-4 = system: MOLT-4
Malme-3M = system: Malme-3M
NCI-H23 = system: NCI-H23
NCI-H460 = system: NCI-H460
NCI-H522 = system: NCI-H522
NCI/ADR-RES = system: NCI/ADR-RES
OVCAR-4 = system: OVCAR-4
OVCAR-5 = system: OVCAR-5
OVCAR-8 = system: OVCAR-8
PC-3 = system: PC-3
RPMI-8226 = system: RPMI-8226
RXF 393 = system: RXF 393
SF-268 = system: SF-268
SF-295 = system: SF-295
SF-539 = system: SF-539
SK-MEL-28 = system: SK-MEL-28
SK-MEL-2 = system: SK-MEL-2
SK-MEL-5 = system: SK-MEL-5
SK-OV-3 = system: SK-OV-3
SN12C = system: SN12C
SNB-19 = system: SNB-19
SNB-75 = system: SNB-75
SW-620 = system: SW-620
T47D = system: T47D
TK-10 = system: TK-10
U-251 = system: U-251
UACC-257 = system: UACC-257
UACC-62 = system: UACC-62
UO-31 = system: UO-31
A498 = system: A498
CAKI-1 = system: CAKI-1
EKVX = system: EKVX
MDA-MB-435 = system: MDA-MB-435
NCI-H226 = system: NCI-H226
OVCAR-3 = system: OVCAR-3
SR = system: SR

Measured: GI50

Cc1ccc(S(=O)(=O)NC(=O)N[C@@H](Cc2c[nH]cn2)C(=O)O)cc1
> 100 µM: HCT-15
inactive: 786-0 > 100 µM | A549 > 100 µM | ACHN > 100 µM | BT-549 > 100 µM | CCRF-CEM > 100 µM | COLO 205 > 100 µM | DU-145 > 100 µM | HCT-116 > 100 µM | HL-60 > 100 µM | HOP-62 > 100 µM | HOP-92 > 100 µM | HT-29 > 100 µM | Hs-578T > 100 µM | IGROV-1 > 100 µM | K562 > 100 µM | KM12 > 100 µM | LOX IMVI > 100 µM | M14 > 100 µM | MCF7 > 100 µM | MDA-MB-231 > 100 µM | MDA-N > 100 µM | MOLT-4 > 100 µM | Malme-3M > 100 µM | NCI-H23 > 100 µM | NCI-H460 > 100 µM | NCI-H522 > 100 µM | NCI/ADR-RES > 100 µM | OVCAR-4 > 100 µM | OVCAR-5 > 100 µM | OVCAR-8 > 100 µM | PC-3 > 100 µM | RPMI-8226 37.3 µM | RXF 393 > 100 µM | SF-268 > 100 µM | SF-295 > 100 µM | SF-539 > 100 µM | SK-MEL-28 > 100 µM | SK-MEL-2 > 100 µM | SK-MEL-5 > 100 µM | SK-OV-3 > 100 µM | SN12C > 100 µM | SNB-19 > 100 µM | SNB-75 > 100 µM | SW-620 > 100 µM | T47D > 100 µM | TK-10 > 100 µM | U-251 > 100 µM | UACC-257 > 100 µM | UACC-62 > 100 µM | UO-31 > 100 µM

CC(N)(/C=C/c1ccccc1)C(=O)O (stereo not drawn)
> 100 µM: HCT-15
inactive: 786-0 > 100 µM | A498 > 100 µM | A549 > 100 µM | ACHN > 100 µM | BT-549 > 100 µM | CAKI-1 > 100 µM | COLO 205 > 100 µM | EKVX > 100 µM | HCT-116 > 100 µM | HL-60 > 100 µM | HOP-62 > 100 µM | HOP-92 > 100 µM | HT-29 > 100 µM | Hs-578T 67.3 µM | IGROV-1 > 100 µM | K562 > 100 µM | KM12 > 100 µM | LOX IMVI > 100 µM | M14 > 100 µM | MCF7 > 100 µM | MDA-MB-231 > 100 µM | MDA-MB-435 > 100 µM | MDA-N > 100 µM | MOLT-4 > 100 µM | Malme-3M > 100 µM | NCI-H226 > 100 µM | NCI-H23 > 100 µM | NCI-H460 > 100 µM | NCI-H522 > 100 µM | NCI/ADR-RES > 100 µM | OVCAR-3 > 100 µM | OVCAR-4 > 100 µM | OVCAR-5 > 100 µM | OVCAR-8 > 100 µM | PC-3 > 100 µM | RPMI-8226 > 100 µM | SF-268 > 100 µM | SF-295 > 100 µM | SF-539 > 100 µM | SK-MEL-28 > 100 µM | SK-MEL-2 > 100 µM | SK-MEL-5 > 100 µM | SK-OV-3 > 100 µM | SN12C > 100 µM | SNB-19 > 100 µM | SR > 100 µM | SW-620 > 100 µM | TK-10 > 100 µM | U-251 > 100 µM | UACC-257 > 100 µM | UACC-62 > 100 µM | UO-31 > 100 µM

Nc1nc(O)c2ncn([C@H]3CC[C@@H](CO)O3)c2n1
> 100 µM: HCT-15
inactive: A498 > 100 µM | BT-549 > 100 µM | CAKI-1 > 100 µM | CCRF-CEM > 100 µM | COLO 205 > 100 µM | DU-145 > 100 µM | HCT-116 > 100 µM | HOP-62 > 100 µM | HOP-92 > 100 µM | HT-29 > 100 µM | Hs-578T > 100 µM | IGROV-1 > 100 µM | K562 > 100 µM | KM12 > 100 µM | LOX IMVI > 100 µM | M14 > 100 µM | MCF7 > 100 µM | MDA-MB-435 > 100 µM | MDA-N > 100 µM | MOLT-4 > 100 µM | Malme-3M > 100 µM | NCI-H226 > 100 µM | NCI-H23 > 100 µM | NCI-H460 > 100 µM | NCI/ADR-RES > 100 µM | OVCAR-3 > 100 µM | OVCAR-4 > 100 µM | OVCAR-5 > 100 µM | OVCAR-8 > 100 µM | PC-3 > 100 µM | RPMI-8226 > 100 µM | RXF 393 > 100 µM | SF-295 > 100 µM | SK-MEL-28 > 100 µM | SK-MEL-2 > 100 µM | SK-MEL-5 > 100 µM | SK-OV-3 > 100 µM | SN12C > 100 µM | SNB-19 > 100 µM | SNB-75 > 100 µM | SR > 100 µM | SW-620 > 100 µM | T47D > 100 µM | TK-10 > 100 µM | U-251 > 100 µM | UACC-257 > 100 µM | UACC-62 > 100 µM | UO-31 > 100 µM
